Experimental data published in article PMC6791878, “Evaluation of integrin αvβ6 cystine knot PET tracers to detect cancer and idiopathic pulmonary fibrosis” (Nature Communications, 2019).

Assays:
[1] = test system: pancreatic cancer; experiment: [18F]FP-R01-MG-F2 vs [18F]FDG PET/CT in a pancreatic cancer patient (Stanford); conditions: FDG, 1 hr
Method: The line was flushed with at least 10 ml normal saline after injection. • Blood samples for blood time activity measurements were taken at 1, 3, 5, and 10 min after tracer administration and then at 30-minute intervals for up to 3 h after tracer injection. The counts in whole blood and plasma were measured by gamma counter (Perkin Elmer Wizard 1470). […] The scan was performed over the abdominal region to include the pancreas. Attenuation correction was employed via CT (120 kV, 10 mA). […] The scan was performed over the chest region. Attenuation correction was employed via CT (120 kV, 10 mA). • Static total-body (vertex-to-toe) PET/CT scans were acquired at 60 min and 120 min post injection. CT was performed at 120 kV; it was dose-modulated based on body habitus with current ranging from 10-105 mA for the 60-minute scan. […] EKG data was analyzed to assess changes in overall rhythm of the heart. • On the day of the study, participants were asked to void frequently to reduce radiation exposure. Urine samples were collected at prior to tracer administration (baseline), prior to the static PE scans, at the end of the study day 1, and at the follow up visits 1 day and 7 days after tracer administration.
Upon co-registration of the PET and CT images, the CT images were used to determine regions of interest for the organs or tissues reported in the manuscript. These ROIs were applied to the PET images of the brain, pituitary gland, breast, lower and upper large intestine, small intestine, stomach, pancreas, heart wall, liver, lung, muscle, red marrow, bone, skin, and thyroid gland. For high uptake organs such as the kidneys, bladder and for the whole body, threshold-based segmentation of PET images were used to determine a close-fitting ROI around the entire organ or whole body. In order to determine accuracy, these PET-derived ROIs were compared to the CT overlay for a close match.

[2] = biological target: T1, human integrin αvβ6 (Homo sapiens, UniProt P06756+P18564, DEL708-788); experiment: Competition binding (IC50) against yeast surface-displayed R01-MG; conditions: compete with R01-MG displayed on yeast
T1 construct: purchased R&D Systems
T1 sequence (P06756 31-992 limits assumed, stated change not applied): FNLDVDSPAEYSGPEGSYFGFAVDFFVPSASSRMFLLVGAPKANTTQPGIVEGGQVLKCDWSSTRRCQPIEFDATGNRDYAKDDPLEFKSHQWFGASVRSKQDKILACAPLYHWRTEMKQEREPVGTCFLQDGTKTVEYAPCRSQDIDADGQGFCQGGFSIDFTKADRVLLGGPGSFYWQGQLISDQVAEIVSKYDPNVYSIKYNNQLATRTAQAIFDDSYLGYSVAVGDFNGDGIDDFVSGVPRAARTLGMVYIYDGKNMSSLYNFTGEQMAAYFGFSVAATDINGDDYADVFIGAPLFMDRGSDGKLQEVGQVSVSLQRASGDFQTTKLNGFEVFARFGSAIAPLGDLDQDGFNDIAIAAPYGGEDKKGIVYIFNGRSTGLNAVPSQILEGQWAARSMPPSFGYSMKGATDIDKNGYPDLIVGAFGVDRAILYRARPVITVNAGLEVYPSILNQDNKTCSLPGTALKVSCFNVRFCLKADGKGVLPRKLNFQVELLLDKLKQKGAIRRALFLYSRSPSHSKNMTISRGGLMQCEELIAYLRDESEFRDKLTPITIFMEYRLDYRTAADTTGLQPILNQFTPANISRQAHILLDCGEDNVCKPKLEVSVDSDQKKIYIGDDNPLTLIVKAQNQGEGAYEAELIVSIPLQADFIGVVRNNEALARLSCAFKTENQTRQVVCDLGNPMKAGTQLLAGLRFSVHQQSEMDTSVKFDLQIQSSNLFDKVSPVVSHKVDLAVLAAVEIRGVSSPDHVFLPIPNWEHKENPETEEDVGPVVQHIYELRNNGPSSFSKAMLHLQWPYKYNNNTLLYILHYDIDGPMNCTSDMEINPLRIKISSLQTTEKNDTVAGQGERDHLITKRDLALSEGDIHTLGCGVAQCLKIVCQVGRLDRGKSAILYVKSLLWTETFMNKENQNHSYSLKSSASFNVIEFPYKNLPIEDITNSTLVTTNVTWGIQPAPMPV
T1 sequence (P18564 22-707 limits assumed, stated change not applied): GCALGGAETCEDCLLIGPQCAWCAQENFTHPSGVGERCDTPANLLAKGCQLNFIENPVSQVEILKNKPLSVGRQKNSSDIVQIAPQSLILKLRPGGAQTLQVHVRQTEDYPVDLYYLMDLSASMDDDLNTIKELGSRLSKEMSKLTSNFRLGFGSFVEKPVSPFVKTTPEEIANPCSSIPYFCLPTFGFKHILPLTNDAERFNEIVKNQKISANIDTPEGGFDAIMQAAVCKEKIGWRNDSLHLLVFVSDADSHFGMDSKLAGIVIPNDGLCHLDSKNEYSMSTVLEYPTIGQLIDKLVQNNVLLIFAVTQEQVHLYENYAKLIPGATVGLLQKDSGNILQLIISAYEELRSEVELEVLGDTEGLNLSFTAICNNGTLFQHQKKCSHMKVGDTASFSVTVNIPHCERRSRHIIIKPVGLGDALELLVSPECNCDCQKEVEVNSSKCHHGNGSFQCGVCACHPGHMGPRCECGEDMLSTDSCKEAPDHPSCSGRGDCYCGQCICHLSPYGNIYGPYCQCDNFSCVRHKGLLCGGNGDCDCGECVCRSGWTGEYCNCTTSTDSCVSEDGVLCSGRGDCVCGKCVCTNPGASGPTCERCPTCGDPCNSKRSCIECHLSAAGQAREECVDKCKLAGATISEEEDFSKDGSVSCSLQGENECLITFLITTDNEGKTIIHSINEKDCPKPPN

Compound | Bl, PET uptake [1] | Bn, PET uptake [1] | Br, PET uptake [1] | Brs, PET uptake [1] | CA, PET uptake [1] | HW, PET uptake [1] | LLI, PET uptake [1] | Ln, PET uptake [1] | Lv, PET uptake [1] | Ms, PET uptake [1] | RM, PET uptake [1] | SI, PET uptake [1] | Sk, PET uptake [1] | Sp, PET uptake [1] | St, PET uptake [1] | Tr, PET uptake [1] | ULI, PET uptake [1] | WB, PET uptake [1] | binding affinity for integrin avb6 in competition binding (IC50), in words [2]
OC[C@H]1O[C@@H](O)[C@H]([18F])[C@@H](O)[C@@H]1O [FDG] | 21.1 | 1.4 | 8.1 | 0.32 | 4.1 | 2 | 2.2 | 0.59 | 2.9 | 0.53 | 0.29 | 2.5 | 0.38 | 2.9 | 0.16 | 0.9 | 1.8 | 0.79 | 
CC[C@H](C)[C@@H]1NC(=O)[C@@H](NC(=O)CNC(=O)C(C)F)CSSC[C@@H]2NC(=O)[C@H](C)NC(=O)CNC(=O)[C@@H]3CCCN3C(=O)[C@@H]3CSSC[C@@H](C(=O)NCC(N)=O)NC(=O)[C@H](Cc4ccc(O)cc4)NC(=O)CNC(=O)[C@H](CC(N)=O)NC(=O)CNC(=O)[C@H](CCCNC(=N)N)NC(=O)[C@H](CSSC[C@H](NC(=O)[C@H](CCCNC(=N)N)NC(=O)[C@H](Cc4ccccc4)NC(=O)[C@H](CC(C)C)NC(=O)[C@H](CC(C)C)NC(=O)[C@H]([C@@H](C)O)NC(=O)CNC(=O)[C@H](CC(C)C)NC(=O)[C@H](CC(=O)O)NC(=O)[C@H]([C@@H](C)O)NC(=O)[C@H](CCCNC(=N)N)NC(=O)CNC(=O)[C@H](CC(N)=O)NC(=O)[C@H](CC(C)C)NC1=O)C(=O)N[C@@H](CCCNC(=N)N)C(=O)N[C@@H](CCCNC(=N)N)C(=O)N[C@@H](CC(=O)O)C(=O)N[C@@H](CO)C(=O)N[C@@H](CC(=O)O)C(=O)N3)NC(=O)[C@H]([C@@H](C)CC)NC2=O (stereo partly shown) [[^19F]FP-R01-MG-F1] |  |  |  |  |  |  |  |  |  |  |  |  |  |  |  |  |  |  | subnanomolar
